# Data from patent publication US20020132276A1, “FACS method for detecton of GPIIb/IIIa inhibitor dependent activators in plasma samples” (priority 1999, published 2002).
# “Also recorded” adds a separate entry of the source.
# Tested on: platelet CD62
# Test: DDPASFCA: flow cytometric detection of platelet CD62 in plasma samples with and without GPIIb/IIIa antagonist (Example 1 procedure)
# Format: cell-based, human
# Design: key to Delta Med F12: median PE fluorescence with antagonist minus without antagonist
# Method: 50 μL of citrated plasma from a patient eliciting a thrombocytopenic response during treatment with Compound A was added to Costar Serocluster® 96 well V-bottom microtiter plates (#3897). GPIIb/IIIa antagonist or vehicle was added (2 μL of 5μM compound A, final concentration 200 nM) was added, followed by sufficient PRP or PRP diluted into PPP to give a final platelet number of 1×10^6/well (typically 2 μL PRP). Reactions were incubated without shaking for 120 minutes. After this time, 15 μL of phycoerythrin conjugated anti-CD62 (anti-CD62-PE, Bectin Dickinson) was added. After 30 minutes the samples were diluted with 130 μL flow buffer (FB) consisting of 10 mM HEPES, 5 mM Kcl, 168 mM NaCl, 1 mM MgCl2. Samples were then transferred to 12×75 mm polystyrene and analyzed on a FACScan (Bectin Dickinson). PE fluorescence was read on FL2. Platelets were identified by their characteristic forward and side light scatter. Data from 10,000 events was obtained per sample and analyzed using Bectin Dickinson CellQuest software. The effects of GPIIb/IIIa antagonists on CD62 expression are expressed as the difference in median PE fluorescence for reactions in the presence of GPIIb/IIIa antagonist and CD62 median PE fluorescence in the absence of a GPIIb/IIIa antagonist.
# The procedure was the same as in Example 1 (with modifications outlined in that example) except that where samples were limiting, only 35-40 μL of plasma was used.
# Plasma from a patient who developed a thrombocytopenic episode while under therapy with Compound A was analyzed for the presence of DDPASs that might not be of immunoglobulin nature. Plasma from this previously thrombocytopenic patient (taken 17 months after the thrombocytopenia) as well as normal human plasma (negative control) and plasma from a subject known to contain DDPAS (positive control) were processed to remove immunoglobulins by passage through 1 mL protein A Hitrap® columns (Pharmacia, Inc.). The immunoglobulin-depleted plasma was free of IgG as assessed by an IgGl-specific ELISA and negative for the presence of GPIIb/IIIa antagonist-dependent anti-platelet antibodies as assessed by the DDAB ELISA assay. Plasma samples were then tested in the DDPASFCA as described in Example 1. There was no statistical difference between results for plasma samples containing immunoglobulin and those not containing immunoglobulin, Table 1.
# The detection of a positive DDPAS titer in the presence of a donor plasma was assessed with dilutions of the DDPASFCA-positive plasma DPC38 into the DDPASFCA-negative plasma DPC50 using platelets from DPC50 as follows: Varying volume amounts of control plasma (DPC50), not containing DDPASs, were mixed with a the DDPAS-positive test plasma (total volume 50 μL). 1×10^6 platelets (PRP) was added. Samples were treated as in Example 1 with and without added Compound A. In the concentration range employed, DDPASs could be quantitatively measured in the test plasma. […] Thus, the signal intensity in the DDPASFCA was dose-dependent with respect to the plasma concentration for the DDPASFCA-positive subject DPC38. In contrast DDPASs were undetectable in the control plasma.
# The development of DDPASs in the plasma of a patient who received Compound A and developed thrombocytopenia was analyzed using the procedure of Example 1. DDPASFCA was not determined for patient #304 prior to taking Compound A. The patient experienced thrombocytopenia after 3 days of administration of Compound A. DDPASs were subsequently detected in this patient's plasma on day 22 post-administration of Compound A and were also detected 17 months later (FIG. 2). DPC38 was used as a positive control. DPC3 was used as a negative control. […] In a prospective study, a patient with such pre-existing DDPASs could be excluded from the study, possibly preventing the clinically significant thrombocytopenic episode.
# [1] = Neg. control plasma, IgG status +
# [2] = Neg. control plasma, IgG status − (protein A-depleted)
# [3] = Pos. control plasma, IgG status +
# [4] = Pos. control plasma, IgG status − (protein A-depleted)
# [5] = TCP plasma, IgG status − (protein A-depleted plasma)
smiles,measurement,setting,value
"CCCCOC(=O)N[C@@H](CNC(=O)C[C@H]1CC(c2ccc(C(=N)N)cc2)=NO1)C(=O)O [Compound A, 2(S)-[(n-butoxycarbonyl)amino]-3-[[[3-[4-(aminoiminomethyl)phenyl]isoxazolin-5(R)-yl]methylcarbonyl]amino]propionic acid]",+ compound Med F12,"DPC38 0 ul, DPC50 50 ul",12
same,Delta Med F12,"DPC38 0 ul, DPC50 50 ul",−8
same,+ compound Med F12,"DPC38 8 ul, DPC50 42 ul",64
same,Delta Med F12,"DPC38 8 ul, DPC50 42 ul",20
same,+ compound Med F12,"DPC38 10 ul, DPC50 40 ul",73
same,Delta Med F12,"DPC38 10 ul, DPC50 40 ul",17
same,+ compound Med F12,"DPC38 12 ul, DPC50 38 ul",88
same,Delta Med F12,"DPC38 12 ul, DPC50 38 ul",17
same,+ compound Med F12,"DPC38 17 ul, DPC50 33 ul",135
same,Delta Med F12,"DPC38 17 ul, DPC50 33 ul",21
same,+ compound Med F12,"DPC38 25 ul, DPC50 25 ul",271
same,Delta Med F12,"DPC38 25 ul, DPC50 25 ul",79
same,Delta Med F12,"DPC38 50 ul, DPC50 0 ul",304
same,+ compound Med F12,"DPC38 50 ul, DPC50 0 ul, DPC50 platelets",670
same,Delta (median PE fluorescence with minus without compound A),[1],−2 +/− 2
same,FL2 compound A (median PE fluorescence),[1],16 +/− 1
same,Delta (median PE fluorescence with minus without compound A),[2],−44 +/− 15
same,FL2 compound A (median PE fluorescence),[2],30 +/− 9
same,Delta (median PE fluorescence with minus without compound A),[3],142 +/− 73
same,FL2 compound A (median PE fluorescence),[3],315 +/− 27
same,Delta (median PE fluorescence with minus without compound A),[4],122 +/− 52
same,FL2 compound A (median PE fluorescence),[4],297 +/− 33
same,Delta (median PE fluorescence with minus without compound A),"TCP plasma, IgG status + (plasma)",78 +/− 10
same,FL2 compound A (median PE fluorescence),"TCP plasma, IgG status + (plasma), Compound A 200 nM",154 +/− 8
same,Delta (median PE fluorescence with minus without compound A),[5],94 +/− 25
same,FL2 compound A (median PE fluorescence),[5],156 +/− 20
same,DDPASs in patient plasma,"patient #304, 17 months later",also detected
same,DDPASs in patient plasma,"patient #304, day 22 post-administration of Compound A",detected; also recorded: DDPASFCA positive
same,DDPASs in plasmas of DDAB ELISA positive patients,"pre-dose and study exit plasma, patients without clinically significant thrombocytopenia, except sample 099016",no substantial DDPASs
